Laboratory results: patent US20260240839A1, “Pharmaceutical composition of tetramethylpyrazine nitrone for injection and a method for manufacture thereof” (GUANGZHOU MAGPIE PHARMACEUTICALS CO., LTD., priority 2022, published 2026)

Test: Solution stability of tetramethylpyrazine nitrone in different solvents at 25° C.
Assay type: physicochemical
Settings: for Total impurities / Content: 25° C.
Method: Here, “NA” indicates not measured. “Total impurities” at 0 hour refer to that detected when API of tetramethylpyrazine nitrone is just prepared into a solution.
In 0.1 M HCl, the stability of tetramethylpyrazine nitrone compounds is low, and they begin to degrade as soon as they form a solution. After 3 hours, they completely degrade, and the total content of related substances reaches 100%.

Total impurities (0.1M HCl, 0 h): 59.28% | Content (0.1M HCl, 3 h): 0% | Total impurities (0.1M HCl, 3 h): 100% | Content (0.1M HCl, 24 h): 0% | Total impurities (0.1M HCl, 24 h): 100% | Total impurities (0.1M NaOH, 0 h): 17.78% | Content (0.1M NaOH, 3 h): 81.8% | Total impurities (0.1M NaOH, 3 h): 31.38% | Content (0.1M NaOH, 24 h): 56.54% | Total impurities (0.1M NaOH, 24 h): 49.23% | Content (Pure water, 0 h): 100% | Total impurities (Pure water, 0 h): 0.27% | Content (Pure water, 3 h): 99.71% | Total impurities (Pure water, 3 h): 0.39% | Content (Pure water, 24 h): 98.54% | Total impurities (Pure water, 24 h): 1.16% | Stability in solution (buffer solutions ranging from pH 6.0 to pH 7.4 at 25° C.): relatively stable | Total impurities (pH 4.5 Acetate buffer, 0 h): 8.36% | Content (pH 4.5 Acetate buffer, 3 h): 83.64% | Total impurities (pH 4.5 Acetate buffer, 3 h): 23.6% | Content (pH 4.5 Acetate buffer, 24 h): 60.56% | Total impurities (pH 4.5 Acetate buffer, 24 h): 44.44% | Content (pH 6.0 phosphate buffer, 0 h): 100% | Total impurities (pH 6.0 phosphate buffer, 0 h): 0.33% | Content (pH 6.0 phosphate buffer, 3 h): 98.39% | Total impurities (pH 6.0 phosphate buffer, 3 h): 0.44% | Content (pH 6.0 phosphate buffer, 6 h): 98.65% | Total impurities (pH 6.0 phosphate buffer, 6 h): 0.9% | Content (pH 6.0 phosphate buffer, 24 h): 96.62% | Total impurities (pH 6.0 phosphate buffer, 24 h): 2.19% | Content (pH 6.4 Phosphate buffer, 0 h): 100% | Total impurities (pH 6.4 Phosphate buffer, 0 h): 0.31% | Content (pH 6.4 Phosphate buffer, 3 h): 98.85% | Total impurities (pH 6.4 Phosphate buffer, 3 h): 0.4% | Content (pH 6.4 Phosphate buffer, 24 h): 97.78% | Total impurities (pH 6.4 Phosphate buffer, 24 h): 0.93% | Content (pH 7.4 Phosphate buffer, 0 h): 100% | Total impurities (pH 7.4 Phosphate buffer, 0 h): 0.47% | Content (pH 7.4 Phosphate buffer, 3 h): 100.83% | Total impurities (pH 7.4 Phosphate buffer, 3 h): 0.39% | Content (pH 7.4 Phosphate buffer, 24 h): 99.92% | Total impurities (pH 7.4 Phosphate buffer, 24 h): 1% | Stability in solution (solutions with a pH lower than 6.0): low
Compound: Cc1nc(C)c(/C=[N+](\[O-])C(C)(C)C)nc1C [tetramethylpyrazine nitrone]
